Test results from EP1257544B1, “PIPERAZINE AND PIPERIDINE DERIVATIVES FOR TREATMENT OR PREVENTION OF NEURONAL DAMAGE” (VERTEX PHARMACEUTICALS INCORPORATED, priority 2000, dated 2001).
Where a name gives a salt, the structure may show the parent alone.

What follows are molecules tested on Dissociated VM cells (assay: Neuroprotection Assay (NMDA-induced neuroexcitotoxic injury, high affinity 3H-dopamine uptake)). Conditions: embryonic day 15 rat ventral mesencephalic cultures, NMDA (100-400 µM) for 20 hours.
Format: cell-based, Sprague-Dawley rat
Description: The neuroprotective activity of the compounds of this invention may be assayed using rat embryo ventral mesencephalic cells in culture which are subsequently exposed to the glutamate receptor agonist NMDA. This assay is described in detail in the example section.
The ventral mesencephalic region was dissected out of embryonic day 15 Sprague-Dawley rat embryos (Harlan), dissociated into single cell suspension by a combination of trypsinization and trituration (Costantini et al., Neurobiol Dis., pp. 97-106 (1998). Dissociated VM cells were plated into poly-L-ornithine-coated 96-well plates at a density of 85,000 cells/well in 100 uL of DMEM supplemented with 18% heat-inactivated horse serum, 0.24% glucose, 2 mM glutamine and 50 u/ml pernicillin/streptomycin and incubated in a 5% CO2 incubator. After one day in culture (DIV1), the medium was replaced with 100 µL of a defined medium (DMEM supplemented with 1x N2 cocktail (Gibco-BRL), 0.12% glucose, 2 mM glutamine, and 50 units/ml penicillin/streptomycin) containing DMSO or various concentrations of the compounds of this invention. On DIV5, neuroexcitotoxic injury was induced by the addition of various concentrations of the glutamate receptor agonist NMDA (100-400 µM). Cultures were incubated with the neurotoxin for 20 hours and the effects of neurophilin compounds were assessed using high affinity ^3H-dopamine uptake according to a procedure published by Park and Mytilineou [Brain Res., 599, pp. 83-97 (1992)].
Fc1ccc(CC2CCN(C[C@@H]3CCCN3Cc3ccccc3)CC2)cc1 [Compound 103, 1-((2S)-1-Benzylpyrrolidin-2-ylmethyl)-4-(4-fluorobenzyl)piperidine dihydrochloride] was tested, and the EC50 was < 100 nM. With CO[C@@H]1C[C@@H](C(=O)N2CCC(Cc3ccccc3)CC2)N(Cc2ccccc2)C1 [Compound 153, ((2S,4R)-1-Benzyl-4-methoxypyrrolidin-2-yl)-(4-benzylpiperdin-1-yl)-methanone] the EC50 was > 500 nM. In the case of COC(=O)CO[C@@H]1C[C@@H](C(=O)N2CCC(Cc3ccccc3)CC2)N(Cc2ccccc2)C1 [Compound 155, [(2S, 4R)-1-Benzyl-5-(4-benzylpiperidine-1-carbonyl)-pyrrolidin-3-yloxyl]-acetic acid methyl ester], the EC50 is reported as > 500 nM. With CN1CCC(C(=O)N2CCC(Cc3ccccc3)CC2)CC1 [Compound 202] the EC50 was 100 to 500 nM. CN1CCCC(C(=O)N2CCC(Cc3ccccc3)CC2)C1 (stereo not shown) [Compound 204] gave an EC50 of 100 to 500 nM. Work on CN1CCC(C(=O)N2CCN(C(c3ccc(F)cc3)c3ccc(F)cc3)CC2)CC1 [Compound 218] yielded an EC50 of 100 to 500 nM. In the case of CN1CCCC(C(=O)N2CCN(C(c3ccc(F)cc3)c3ccc(F)cc3)CC2)C1 (stereo not shown) [Compound 220], the EC50 is reported as > 500 nM. In the case of CCN1CCC(C(=O)N2CCN(c3ccc(F)cc3)CC2)CC1 [Compound 226], the EC50 is reported as 100 to 500 nM. For O=C(C1CCN(C/C=C/c2ccccc2)CC1)N1CCC(Cc2ccc(F)cc2)CC1 [Compound 255], the EC50 was < 100 nM. In the case of O=C(C1CCN(Cc2ccccc2)CC1)N1CCN(c2ccc(F)cc2)CC1 [Compound 256], the EC50 is reported as 100 to 500 nM. For O=C(C1CCN(Cc2ccc(F)cc2)CC1)N1CCC(Cc2ccc(F)cc2)CC1 [Compound 257], the EC50 was 100 to 500 nM. Molecule C=CCN1CCC(C(=O)N2CCN(c3ccc(F)cc3)CC2)CC1 [Compound 258] has an EC50 of 100 to 500 nM. CC(C)=CCN1CCC(C(=O)N2CCN(c3ccc(F)cc3)CC2)CC1 [Compound 260] was tested, and the EC50 was < 100 nM. O=C(C1CCN(CC2CC2)CC1)N1CCN(c2ccc(F)cc2)CC1 [Compound 262] was tested, and the EC50 was < 100 nM. In the case of CC(C)CN1CCC(C(=O)N2CCN(c3ccc(F)cc3)CC2)CC1 [Compound 264], the EC50 is reported as 100 to 500 nM. O=C(C1CCN(C/C=C/c2ccccc2)CC1)N1CCN(c2ccc(F)cc2)CC1 [Compound 266] was tested, and the EC50 was 100 to 500 nM. CCN1CCC(C(=O)N2CCC(Cc3ccc(F)cc3)CC2)CC1 [Compound 270] showed an EC50 of 100 to 500 nM. With C=CCN1CCC(C(=O)N2CCC(Cc3ccc(F)cc3)CC2)CC1 [Compound 274] the EC50 was > 500 nM. In the case of CC(C)=CCN1CCC(C(=O)N2CCC(Cc3ccc(F)cc3)CC2)CC1 [Compound 276], the EC50 is reported as < 100 nM.
